Where “and” joins values, the source holds several entries; their conditions need not be identical. Equal values may be shown once. Read-outs that look alike come from different tables or passages of the source.
How the values were obtained:
[1] = biological target: T1, equine serum butyrylcholinesterase (BChE) (Equus caballus, UniProt P81908); test: biochemical; type: biochemical; details: mean ± SEM, n ≥ 3
T1 construct: butyrylcholinesterase (BChE, EC 3.1.1.8, from equine serum); purchased Sigma-Aldrich (Germany); host or cells: equine serum
T1 sequence (P81908 whole entry): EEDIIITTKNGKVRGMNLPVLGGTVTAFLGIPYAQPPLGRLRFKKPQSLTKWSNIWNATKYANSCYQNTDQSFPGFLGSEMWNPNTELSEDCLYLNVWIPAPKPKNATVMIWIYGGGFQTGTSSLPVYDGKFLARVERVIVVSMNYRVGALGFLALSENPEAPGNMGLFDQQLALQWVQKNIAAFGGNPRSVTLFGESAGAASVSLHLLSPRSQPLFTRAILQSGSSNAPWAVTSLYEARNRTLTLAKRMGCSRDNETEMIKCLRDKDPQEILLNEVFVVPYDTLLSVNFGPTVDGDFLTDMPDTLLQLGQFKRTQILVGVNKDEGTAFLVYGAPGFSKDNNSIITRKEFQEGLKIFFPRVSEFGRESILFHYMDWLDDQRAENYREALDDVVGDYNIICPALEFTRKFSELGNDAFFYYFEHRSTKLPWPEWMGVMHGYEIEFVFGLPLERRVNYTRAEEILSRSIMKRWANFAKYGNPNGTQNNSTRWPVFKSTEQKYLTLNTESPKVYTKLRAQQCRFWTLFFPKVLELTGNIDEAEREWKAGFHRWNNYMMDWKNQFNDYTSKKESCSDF
Method: (§1) Acetylcholinesterase (AChE, EC 3.1.1.7, from human erythrocyte and E. electricus (EeAChE) (type VI-S), butyrylcholinesterase (BChE, EC 3.1.1.8, from equine serum), carboxylesterase (CaE, EC 3.1.1.1, from porcine liver), acetylthiocholine iodide (ATCh), butylthiocholine iodide (BTCh), 5,5′-dithiobis-(2-nitrobenzoic acid) (DTNB), 4-nitrophenyl acetate (4-NPA), were purchased from Sigma-Aldrich (Germany).
(§2) AChE and BChE activities were measured by the Ellman method as described earlier. The assay solution consisted of 0.1 M K/Na phosphate buffer pH 7.5, 25 °C with the addition of 0.33 mM DTNB, 0.02 unit/mL of AChE or BChE, and 1 mM of substrate (ATCh or BTCh, respectively). The assays were carried out with a reagent blank containing all components except AChE or BChE to account for non-enzymatic hydrolysis of substrate. In addition, an enzyme blank was included that contained all components except substrate to account for non-substrate sulfhydryl groups. […] The assay solution consisted of 0.1 M K/Na phosphate buffer pH 8.0, 25 °C with the addition of 1 mM 4-nitrophenyl acetate and 0.02 unit/mL of CaE. Assays were carried out with a blank containing all components except CaE.
(§3) The test compounds were dissolved in DMSO; the incubation mixture contained 2% (v/v) of the solvent. […] The test compounds were added to the assay solution and preincubated at 25°C with the enzymes for 5 min followed by the addition of substrate. A parallel control was made for the assay solution with no inhibitor. […] Each experiment was performed three times. The results were expressed as the mean ± SEM. The reaction rates in the presence and absence of inhibitor were compared, and the percent of residual enzyme activity due to the presence of test compounds was calculated.

[2] = biological target: T2, Electrophorus electricus AChE (EeAChE) (Electrophorus electricus, UniProt O42275); test: biochemical; type: biochemical
T2 construct: from human erythrocyte and E. electricus (EeAChE) (type VI-S); purchased Sigma-Aldrich (Germany) type VI-S; host or cells: Electrophorus electricus tissue
T2 sequence (O42275 24-633): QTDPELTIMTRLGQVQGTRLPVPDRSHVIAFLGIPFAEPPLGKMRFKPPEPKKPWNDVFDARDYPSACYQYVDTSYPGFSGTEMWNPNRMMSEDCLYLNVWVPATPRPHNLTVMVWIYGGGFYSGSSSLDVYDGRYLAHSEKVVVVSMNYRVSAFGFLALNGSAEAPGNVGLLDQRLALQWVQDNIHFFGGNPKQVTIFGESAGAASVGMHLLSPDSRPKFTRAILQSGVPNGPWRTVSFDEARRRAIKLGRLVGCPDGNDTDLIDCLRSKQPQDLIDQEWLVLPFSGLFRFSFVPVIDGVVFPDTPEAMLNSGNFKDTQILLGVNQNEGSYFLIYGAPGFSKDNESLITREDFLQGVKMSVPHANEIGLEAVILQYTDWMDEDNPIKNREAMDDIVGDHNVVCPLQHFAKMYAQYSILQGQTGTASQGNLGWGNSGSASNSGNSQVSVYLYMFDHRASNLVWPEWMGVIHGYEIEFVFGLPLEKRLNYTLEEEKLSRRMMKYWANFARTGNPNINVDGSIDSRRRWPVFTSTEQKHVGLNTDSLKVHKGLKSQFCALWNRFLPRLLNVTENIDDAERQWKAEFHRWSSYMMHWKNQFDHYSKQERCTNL
Method: as §1, §2, §3

[3] = biological target: T3, human erythrocyte acetylcholinesterase (AChE) (Homo sapiens, UniProt P22303); test: biochemical; type: biochemical; details: mean ± SEM, n ≥ 3
T3 construct: Acetylcholinesterase (AChE, EC 3.1.1.7, from human erythrocyte); purchased Sigma-Aldrich (Germany); host or cells: human erythrocytes
T3 sequence (P22303 32-617 isoform P22303-2 limits assumed): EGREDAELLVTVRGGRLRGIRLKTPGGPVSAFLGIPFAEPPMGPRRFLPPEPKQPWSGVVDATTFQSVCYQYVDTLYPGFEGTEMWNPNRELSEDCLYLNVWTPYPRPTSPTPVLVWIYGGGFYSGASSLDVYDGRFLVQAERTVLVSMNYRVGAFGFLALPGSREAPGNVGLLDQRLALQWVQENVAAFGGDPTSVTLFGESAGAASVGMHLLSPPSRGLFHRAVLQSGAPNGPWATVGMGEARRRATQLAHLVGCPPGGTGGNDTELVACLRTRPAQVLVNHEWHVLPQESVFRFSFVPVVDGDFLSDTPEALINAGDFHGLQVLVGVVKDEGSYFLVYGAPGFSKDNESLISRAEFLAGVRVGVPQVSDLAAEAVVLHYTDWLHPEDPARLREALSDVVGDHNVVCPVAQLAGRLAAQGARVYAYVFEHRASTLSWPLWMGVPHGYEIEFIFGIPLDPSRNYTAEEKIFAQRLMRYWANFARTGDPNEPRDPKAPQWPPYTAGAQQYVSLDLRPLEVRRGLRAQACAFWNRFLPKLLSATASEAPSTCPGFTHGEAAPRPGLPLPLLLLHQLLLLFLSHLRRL
Method: as §1, §2, §3

[4] = biological target: T4, porcine liver carboxylesterase (CaE) (Sus scrofa, UniProt Q29550); test: CaE inhibition (4-nitrophenyl acetate hydrolysis); type: biochemical; details: for inhibition at 20 µM / % inhibition of CaE at 20 µM: mean ± SEM, n ≥ 3, n.a. = not active at 20 µM; for IC50: read-out: IC50 CaE
T4 sequence (Q29550 19-566): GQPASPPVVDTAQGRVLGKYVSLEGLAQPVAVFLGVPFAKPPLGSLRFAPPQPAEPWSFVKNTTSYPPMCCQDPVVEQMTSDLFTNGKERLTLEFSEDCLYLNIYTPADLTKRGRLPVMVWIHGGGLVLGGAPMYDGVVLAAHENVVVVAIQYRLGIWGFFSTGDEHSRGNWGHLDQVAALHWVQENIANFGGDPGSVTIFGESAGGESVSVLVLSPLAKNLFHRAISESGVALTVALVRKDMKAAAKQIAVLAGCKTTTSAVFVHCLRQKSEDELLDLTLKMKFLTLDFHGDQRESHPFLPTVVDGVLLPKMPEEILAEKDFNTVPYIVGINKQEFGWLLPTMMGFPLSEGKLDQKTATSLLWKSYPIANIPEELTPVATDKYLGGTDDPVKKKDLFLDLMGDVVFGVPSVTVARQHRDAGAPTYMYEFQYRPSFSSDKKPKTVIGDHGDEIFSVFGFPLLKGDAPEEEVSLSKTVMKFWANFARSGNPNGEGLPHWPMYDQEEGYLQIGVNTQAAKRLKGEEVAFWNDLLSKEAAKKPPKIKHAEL
Method: as §1, §2, §3

[5] = biological target: T5, peripheral anionic site (PAS) of EeAChE (Electrophorus electricus, UniProt O42275); type: binding; details: EeAChE 7 μM, propidium iodide 8 μM; for % Displacement of propidium iodide, 3 µM: compound 3 µM; for % Displacement of propidium iodide, 20 µM: compound 20 µM
T5 construct: from human erythrocyte and E. electricus (EeAChE) (type VI-S); purchased Sigma-Aldrich (Germany) type VI-S; host or cells: Electrophorus electricus tissue
T5 sequence (O42275 24-633): as the sequence (O42275 24-633) above
Excerpt: The fluorescent assay used to evaluate competitive propidium iodide displacement from the PAS of AChE is commonly used as primary screening method of AChE pro-aggregation activity inhibitors. Propidium iodide is a selective ligand for the PAS of AChE responsible for Aβ binding.
EeAChE was used owing to its high degree of purification, high activity, and lower cost than human AChE. […] The fluorescence intensity of propidium iodide bound with AChE increases several times.
To determine the degree of displacement (% displacement) of propidium iodide from the PAS of AChE, EeAChE (final concentration 7 μM) was incubated with the test compound at a concentration of 3 and 20 μM in 1 mM Tris-HCl buffer pH 8.0, 25 °C for 15 min. Then, propidium iodide solution (final concentration 8 μM) was added, the samples were incubated for 15 min and the fluorescence spectrum (530 nm (excitation) and 600 nm (emission)) was taken. Donepezil and tacrine were used as reference compounds. The blank contained propidium iodide of the same concentration in 1 mM Tris-HCl buffer pH 8.0. The measurements were carried out in triplicate on a microplate reader FLUOStar Optima (BMG Labtech Germany).
The degree of displacement (% displacement) of propidium iodide from the peripheral anionic site of AChE was calculated by the following formula: %Displacement=100−(IFAChE+Propidium+inhibitor/IFAChE+Propidium)[…], where IFAChE + Propidium is the fluorescence intensity of the propidium associated with AChE in the absence of the test compound (taken as 100%), and IFAChE + Propidium + inhibitor is the fluorescence intensity of the propidium associated with AChE in the presence of the test compound.

[6] = Oxygen radical absorbance capacity assay (ORAC-FL); details: for radical-scavenging activity, ORAC-FL method: result in words; for ORAC TE value: ORAC-FL, AAPH, fluorescein, 37 °C, pH 7.4, Trolox taken as 1
Method: The ability of the conjugates to reduce the amount of peroxyl radicals as another characteristic of the antioxidant activity of the compounds was determined using the oxygen radical absorbance capacity by fluorescence (ORAC-FL) method using fluorescein (FL) as a fluorescent probe. The method is based on measuring the decrease in the intensity of fluorescence with time, which characterizes the degree of decay of the fluorescent probe under the influence of peroxyl radicals. In the presence of antioxidants, the degree of decay of the fluorescent probe decreases and, accordingly, the fluorescence time increases.
The ability of compounds to scavenge peroxyl radicals was characterized by the value of the Trolox equivalent (TE, μmol of Trolox per μmol of the tested compound), which is equal to the ratio of the Trolox concentration to the tested compound concentration having the same fluorescence intensity. Peroxyl radical scavenging capacity of Trolox is taken as one (1)[67],[68].
2,2′-Azobis-(amidinopropane) dihydrochloride (AAPH), (±)-6-hydroxy-2,5,7,8-tetramethylchromane-2-carboxylic acid (Trolox) and fluorescein (FL) were purchased from Sigma-Aldrich. The reaction was carried out at 37 °C in 75 mM K,Na phosphate buffer (pH 7.4), and the final reaction mixture was 200 µL. The tested compounds and Trolox standard were dissolved in DMSO to 10 mM and further diluted in 75 mM K,Na phosphate buffer (pH 7.4). […] The blank was composed of 20 µL 75 mM K,Na phosphate buffer (pH 7.4) containing 2% (v/v) DMSO, 120 µL FL and 60 µL AAPH, and was added in each assay. Antioxidant (the test compound or Trolox, 20 µL) and FL (120 µL, final concentration: 70 nM) solutions were placed in a black 96-well microplate and were pre-incubated for 15 min at 37 °C. AAPH solution (60 µL, final concentration 12 mM) was then added rapidly using a multichannel pipette. The fluorescence was recorded every minute for 100 min. A Trolox standard curve was also obtained in each assay. All reactions were carried out in triplicate and at least three different assays were performed for each sample.
Antioxidant curves (fluorescence vs. time) were first normalized to the curve of the blank (without antioxidant) corresponding to the same assay, and the area under the fluorescence decay curve (AUC) was calculated. The net AUC corresponding to a sample was calculated by subtracting the AUC corresponding to the blank. Regression equations were calculated by plotting the net AUC against the antioxidant concentration. The ORAC value was obtained by dividing the slope of the latter curve by the slope of the Trolox curve obtained in the same assay. […] Data were expressed as means ± SEM.

[7] = system: isolated rat liver mitochondria; test: Inhibition of iron-induced lipid peroxidation (TBARs); details: read-out: IC50 of Fe3+-induced LP, LP induced by 0.5 mM Fe3+, mean ± SEM, n ≥ 3
[8] = system: isolated rat liver mitochondria; test: Restoration of mitochondrial membrane potential after rotenone-induced depolarization; type: biochemical; details: 3 μM compound
Excerpt: Therefore, we examined the ability of MB, MBH2, and compound 3 to restore membrane potential after depolarization with rotenone. […] It is important to note that successive additions of calcium and the uncoupler carbonyl cyanide m-chlorophenyl hydrazone (CCCP) each caused mitochondrial depolarization (Fig. 6). […]

[9] = mean ± SEM, n ≥ 3, read-out: EeAChE IC50

SMILES | IC50 [1] | IC50 [2] | IC50 [3] | inhibition at 20 µM [4] | IC50 [4] | % Displacement of propidium iodide, 3 µM [5] | % Displacement of propidium iodide, 20 µM [5] | radical-scavenging activity, ORAC-FL method [6] | IC50 [7] | recovery of ΔΨm after rotenone-induced depolarization [8] | IC50 [2, 9] | % inhibition of CaE at 20 µM [4] | ORAC TE value [6]
CN(C)c1ccc2c(c1)Sc1cc(N(C)C)ccc1N2 [MBH2, leucomethylene blue, reference compound] | 10700 ± 200 nM | 280 ± 20 nM | 1760 ± 90 nM | 17.2% | > 20000 nM | 17.7 ± 1.8% | 36.9 ± 3.3% | not detectable | 1580 ± 490 nM | recovered | – | – | –
CN(C)c1ccc2nc3ccc(=[N+](C)C)cc-3sc2c1 [MB, methylene blue, reference compound] | 11100 ± 100 nM | 210 ± 20 nM | – | 12.3% | > 20000 nM | 20% and 20.9 ± 1.9% | 40% and 40.8 ± 3.7% | not detectable | 4000 ± 600 nM | recovered | – | – | –
Cc1ccc2c(c1)c1c(n2CCC(=O)N2c3ccc(N(C)C)cc3Sc3cc(N(C)C)ccc32)CCN(C(C)C)C1.Cl.Cl.Cl [Compound 6] | 970 ± 50 nM | – | 7370 ± 420 nM | – | > 20000 nM | 7.7 ± 0.5% | 30.0 ± 0.9% | – | 580 ± 30 nM | – | 1070 ± 80 nM | 19.5 ± 1.8% | 7.12 ± 0.64 µmol Trolox/ µmol comp.
Cc1ccc2c(c1)c1c(n2CCC(=O)N2c3ccc(N(C)C)cc3Sc3cc(N(C)C)ccc32)CCN(C)C1 [Compound 3] | 1820 ± 140 nM | – | 1730 ± 110 nM | 26% | > 20000 nM | 8.1 ± 0.7% | 35.6 ± 1.5% | – | 2290 ± 470 nM | recovered | 1470 ± 80 nM | – | 7.44 ± 0.74 µmol Trolox/ µmol comp.
CCN1CCc2c(c3cc(C)ccc3n2CCC(=O)N2c3ccc(N(C)C)cc3Sc3cc(N(C)C)ccc32)C1.Cl.Cl.Cl [Compound 4] | 17900 ± 1400 nM | – | 4030 ± 360 nM | – | > 20000 nM | 11.8 ± 0.6% | 37.6 ± 1.8% | – | 710 ± 10 nM | – | 650 ± 50 nM | 15.7 ± 1.8% | 9.82 ± 0.79 µmol Trolox/ µmol comp.
CN1CCc2c(c3ccccc3n2CCC(=O)N2c3ccc(N(C)C)cc3Sc3cc(N(C)C)ccc32)C1.Cl.Cl.Cl [Compound 1] | 5940 ± 550 nM | – | 3170 ± 130 nM | – | > 20000 nM | – | – | – | 1450 ± 290 nM | – | 830 ± 30 nM | 21.5 ± 2.3% | 7.28 ± 0.65 µmol Trolox/ µmol comp.
CCCN1CCc2c(c3cc(C)ccc3n2CCC(=O)N2c3ccc(N(C)C)cc3Sc3cc(N(C)C)ccc32)C1.Cl.Cl.Cl [Compound 5] | 8420 ± 830 nM | – | 3950 ± 210 nM | – | > 20000 nM | 14.2 ± 0.9% | 35.1 ± 0.9% | – | 750 ± 10 nM | – | 800 ± 70 nM | 9.8 ± 1.4% | 7.70 ± 0.84 µmol Trolox/ µmol comp.
CCN1CCc2c(c3ccccc3n2CCC(=O)N2c3ccc(N(C)C)cc3Sc3cc(N(C)C)ccc32)C1.Cl.Cl.Cl [Compound 2] | 2530 ± 220 nM | – | 2950 ± 70 nM | – | > 20000 nM | 12.9 ± 1.1% | 37.1 ± 2.0% | – | 680 ± 70 nM | – | 670 ± 40 nM | 18.1 ± 1.7% | 8.80 ± 0.96 µmol Trolox/ µmol comp.
CN1CCc2c(c3cc(F)ccc3n2CCC(=O)N2c3ccc(N(C)C)cc3Sc3cc(N(C)C)ccc32)C1 [Compound 7] | 10500 ± 900 nM | – | 6860 ± 320 nM | 13.8% | > 20000 nM | 6.7 ± 0.5% | 29.8 ± 2.1% | – | 3200 ± 400 nM | – | 2090 ± 190 nM | – | 10.93 ± 0.98 µmol Trolox/ µmol comp.
